Measured values from patent publication US10028966B2 (Avalyn Pharma Inc., priority 2014, dated 2018).
Marks after values point to notes of the source that are not given here.

Assays:
[1] = in vivo; cited from earlier work
[2] = Process temperature development study (60°C dissolution, cooling to 25°C); assay type: physicochemical
Method: […]. […] The final volume of each formulation was 5 mL. […] Each sample was mixed thoroughly and agitated overnight at 60° C. Rapid cooling and step-wise cooling from 60° C. to 25° C. was performed. HPLC analysis was performed on samples taken after overnight incubation and after cooling to 25° C. Prior to HPLC analysis, formulations were filtered via syringe through a 0.45 μm PVDF filter.

[3] = Modeled human inhaled aerosol pirfenidone pharmacokinetics (FIG. 2, FIG. 5, Table 28)
Source text: More specifically, the oral route requires a large oral dose to achieve a relatively small lung tissue Cmax. Delivering a similar Cmax without the large systemic dose provides increased efficacy. However, further escalating this direct lung dose, which results in increased systemic exposure, reduces this effect. […] Specifically, a high lung tissue Cmax is important for lung tissue anti-fibrotic efficacy. However, this positive effect appears dependent upon an associated small plasma AUC; the larger the plasma AUC, the lower the efficacy. […] In practice, the oral route of administration is not capable of meeting this U-shaped-restricted dose response. Safety and tolerability prevent further dose escalation of the 801 mg/dose oral medicine (Esbriet®). […] To illustrate these findings, possible human lung tissue and plasma pharmacokinetics following tidal-breath-inhaled aerosol administration were again modeled (FIG. 5). […] These safety and/or tolerability restrictions may be associated with plasma AUC, plasma Cmax, gastrointestinal exposure or a combination of these events. […] However, this limitation could also be set as the plasma Cmax or a combination of these pharmacokinetic parameters.
Aerosol deliver parameters for the FIGS. 2 and 5 models were based on high-efficiency, mesh-based nebulizer characterization (Table 12). […] Respirable delivered dose (RDD) calculated by the product of fine particle fraction (FPF, %<5 microns) and inhaled mass. […] For this non-limiting example, a FPF of 78% and inhaled mass of 67% was used. Using these numbers, a 90 mg device-loaded dose may produce an RDD of about 47 mg (Table 26 and FIG. 2). […] For this non-limiting example, a FPF of 78% and inhaled mass of 67% was used. Using these numbers, a 230 mg device-loaded dose may produce an RDD of about 120 mg. […] This later dose was modeled to be delivered in 1 minute.
An additional clinical consideration is the rat plasma AUC showing non-efficacy in the bleomycin model. […] Only lower delivered doses show anti-fibrotic effect. Plasma AUCs obtained from higher intratracheal or oral doses appears to have similar non-efficacy or enhanced disease.

[4] = Osmolality determination and nebulization for taste testing, throat irritation and cough response; conditions: for Cough Response? / Throat Irritation?: nebulized
Source text: Selected formulations were subjected to osmolality determination and nebulization for taste testing and throat irritation and or cough response.

[5] = 85% saturation pirfenidone formulations exposed to several temperatures (re-crystallization); assay type: physicochemical
Source text: However, in all cases pirfenidone eventually re-crystallized. This re-crystallization was not inhibited by pre-filtration of the sample.

[6] = 0% EtOH, 8% PG, 0% PS80, 92% phosphate buffer (5 mM), pH 6.6
[7] = 0% EtOH, 8% PG, 0.04% PS80, 92% phosphate buffer (5 mM), pH 6.7
[8] = 4% EtOH, 0% PG, 0.04% PS80, 96% phosphate buffer (5 mM), pH 6.6
[9] = 4% EtOH, 8% PG, 0% PS80, 88% phosphate buffer (5 mM), pH 6.7
[10] = 4% EtOH, 8% PG, 0.04% PS80, 88% phosphate buffer (5 mM), pH 6.7
[11] = 43.7 mg/mL pirfenidone, 8% EtOH, 16% PG, 0 mM sodium saccharin, 76% phosphate buffer (5 mM), pH 7.0
[12] = 43.7 mg/mL pirfenidone, 8% EtOH, 16% PG, 0.3 mM sodium saccharin, 76% phosphate buffer (5 mM), pH 7.0
[13] = 27.2 mg/mL pirfenidone, 4% EtOH, 8% PG, 88% phosphate buffer (5 mM), pH 6.6
[14] = 34.7 mg/mL pirfenidone, 6% EtOH, 12% PG, 82% phosphate buffer (5 mM), pH 7.0

Structure (SMILES): Cc1ccc(=O)n(-c2ccccc2)c1 [pirfenidone, 5-methyl-1-phenyl-2-(1H)-pyridone]
- administered pirfenidone excreted in the urine [1]: about 80%
- Observations: dissolution after overnight at 60° C. [2, 6]: Fully dissolved after overnight at
- Observations: time stable at 25° C. before re-crystallization [2, 6]: 60 °C Stable at 25 °C for >4 hours
- Pirfenidone (mg/mL) >60° C., assay content after stepwise cooling to 25° C. [2, 6]: 54.6 mg/mL
- Pirfenidone (mg/mL) >Re-crystal, assay content after stepwise cooling to 25° C. and later re-crystallization [2, 6]: 18.6 mg/mL
- Observations: dissolution after overnight at 60° C. [2, 7]: Fully dissolved after overnight at
- Observations: time stable at 25° C. before re-crystallization [2, 7]: 60 °C Stable at 25 °C for >4 hours
- Pirfenidone (mg/mL) >60° C., assay content after stepwise cooling to 25° C. [2, 7]: 52.8 mg/mL
- Pirfenidone (mg/mL) >Re-crystal, assay content after stepwise cooling to 25° C. and later re-crystallization [2, 7]: 22.3 mg/mL
- Observations: dissolution after overnight at 60° C. [2, 8]: Fully dissolved after overnight at
- Observations: time stable at 25° C. before re-crystallization [2, 8]: 60 °C Stable at 25 °C for >4 hours
- Pirfenidone (mg/mL) >60° C., assay content after stepwise cooling to 25° C. [2, 8]: 50.7 mg/mL
- Pirfenidone (mg/mL) >Re-crystal, assay content after stepwise cooling to 25° C. and later re-crystallization [2, 8]: 22.4 mg/mL
- Observations: dissolution after overnight at 60° C. [2, 9]: Fully dissolved after overnight at
- Observations: time stable at 25° C. before re-crystallization [2, 9]: 60 °C Stable at 25 °C for >4 hours
- Pirfenidone (mg/mL) >60° C., assay content after stepwise cooling to 25° C. [2, 9]: 50.34 mg/mL
- Pirfenidone (mg/mL) >Re-crystal, assay content after stepwise cooling to 25° C. and later re-crystallization [2, 9]: 27.6 mg/mL
- Observations: dissolution after overnight at 60° C. [2, 10]: Fully dissolved after overnight at
- Observations: time stable at 25° C. before re-crystallization [2, 10]: 60 °C Stable at 25 °C for >4 hours
- Pirfenidone (mg/mL) >60° C., assay content after stepwise cooling to 25° C. [2, 10]: 51.8 mg/mL
- Pirfenidone (mg/mL) >Re-crystal, assay content after stepwise cooling to 25° C. and later re-crystallization [2, 10]: 26.8 mg/mL
- behaviour on rapid cooling to 25°C ([2]; after dissolution at 60°C): rapid recrystallization
- full dissolution concentration ([2]; heated to 60°C, 5 mM sodium phosphate pH 6.5 with ethanol, propylene glycol and/or polysorbate 80): ≥ 50 mg/mL
- concentration staying in solution ([2]; slow step-wise cooling 60 to 25°C, for several hours before re-crystallization): about 50 mg/mL
- lung tissue Cmax compared to 801 mg oral dose ([3]; modeled human, 2.5 mg RDD inhaled over 1 minute): equivalent
- plasma AUC0-18hrs ([3]; modeled human, 29 mg RDD, 3 minute tidal-inhaled nebulized dose): 13400 ng·h/mL
- plasma AUC compared to 801 mg oral pirfenidone dose (with food) ([3]; modeled human, 120 mg RDD inhaled over 5 minutes): equivalent
- human lung tissue Cmax ([3]; modeled, 29 mg RDD, 3 minute tidal-inhaled nebulized dose): 43.2 mcg/gram lung tissue
- Osmolality [4, 11]: 3672 mOsmo/Kg
- Osmolality [4, 12]: 3672 mOsmo/Kg
- Osmolality ([4]; calculated, 27.2 mg/mL pirfenidone, 4% EtOH, 8% PG, 88% phosphate buffer (5 mM), pH 6.6): ~1830* mOsmo/Kg
- Osmolality ([4]; calculated, 34.7 mg/mL pirfenidone, 6% EtOH, 12% PG, 82% phosphate buffer (5 mM), pH 7.0): ~2750* mOsmo/Kg
- Cough Response? [4, 13]: No
- Throat Irritation? [4, 13]: No
- Cough Response? [4, 14]: No
- Throat Irritation? [4, 14]: No
- Cough Response? [4, 11]: No
- Throat Irritation? [4, 11]: No
- Cough Response? [4, 12]: No
- Throat Irritation? [4, 12]: No
- Recrystallization upon storage ([5]; overnight at 4° C., 23.0 mg/mL (85% saturation), 4% EtOH, 8% PG, 88% phosphate buffer (5 mM), pH 6.6): No
- Recrystallization upon storage ([5]; overnight at 4° C., 29.5 mg/mL, 6% EtOH, 12% PG, 82% phosphate buffer (5 mM), pH 7.0): No
- Recrystallization upon storage ([5]; overnight at 4° C., […], 8% EtOH, 16% PG, 76% phosphate buffer (5 mM), pH 7.0): No
- Recrystallization upon storage ([5]; overnight at 15° C., 23.0 mg/mL (85% saturation), 4% EtOH, 8% PG, 88% phosphate buffer (5 mM), pH 6.6): No
- Recrystallization upon storage ([5]; overnight at 15° C., 29.5 mg/mL, 6% EtOH, 12% PG, 82% phosphate buffer (5 mM), pH 7.0): No
- Recrystallization upon storage ([5]; overnight at 15° C., […], 8% EtOH, 16% PG, 76% phosphate buffer (5 mM), pH 7.0): No
- Recrystallization upon storage ([5]; overnight at 25° C., 23.0 mg/mL (85% saturation), 4% EtOH, 8% PG, 88% phosphate buffer (5 mM), pH 6.6): No
- Recrystallization upon storage ([5]; overnight at 25° C., 27.2 mg/mL (saturation solubility), 4% EtOH, 8% PG, 88% phosphate buffer (5 mM), pH 6.6): Yes
- Recrystallization upon storage ([5]; overnight at 25° C., 29.5 mg/mL, 6% EtOH, 12% PG, 82% phosphate buffer (5 mM), pH 7.0): No
- Recrystallization upon storage ([5]; overnight at 25° C., 34.7 mg/mL, 6% EtOH, 12% PG, 82% phosphate buffer (5 mM), pH 7.0): Yes
- Recrystallization upon storage ([5]; overnight at 25° C., 43.7 mg/mL, 8% EtOH, 16% PG, 76% phosphate buffer (5 mM), pH 7.0): Yes
- Recrystallization upon storage ([5]; overnight at 25° C., […], 8% EtOH, 16% PG, 76% phosphate buffer (5 mM), pH 7.0): No
- Recrystallization upon storage ([5]; overnight at −20° C., 23.0 mg/mL (85% saturation), 4% EtOH, 8% PG, 88% phosphate buffer (5 mM), pH 6.6, crystals re-dissolved at 25° C. without agitation): Yes^f
- Recrystallization upon storage ([5]; overnight at −20° C., 29.5 mg/mL, 6% EtOH, 12% PG, 82% phosphate buffer (5 mM), pH 7.0, crystals re-dissolved at 25° C. without agitation): Yes^f
- Recrystallization upon storage ([5]; overnight at −20° C., […], 8% EtOH, 16% PG, 76% phosphate buffer (5 mM), pH 7.0, crystals re-dissolved at 25° C. without agitation): Yes^f
